# Experimental data as given in US6573296B2, “Therapeutic quassinoid preparations with antineoplastic, antiviral, and herbistatic activity” (priority 1997, dated 2003).
# Where two headings read alike, the source gives them in different places.
# How the values were obtained:
# [1] = test system: C38; assay: soft agar disk diffusion zone of inhibition assay; type: cell-based, mice
# [2] = test system: mammary adenocarcinoma 17/A/ADR [Mamm 17/Adr]; assay: in vivo chemotherapy of SC transplanted tumor; set-up: species or system mice
# Source text: (§1) Mice. Inbreds mice used were C57B1/6, C3H/He, Balb/c, and DBA/2; hybrids were: B6D2F1 (C57B1/6 females×DBA/2 males), and CD2F1 (Balb/c females×DBA/2 males). All mice were obtained from the Frederick Cancer Research Facility, Frederick, Md.
# (§2) Tumors were maintained in the mouse strain of origin and were transplanted into either an appropriate F1 hybrid or the strain of origin for therapy trials. All mice were over 17 g at the start of therapy; the range of individual body weights in each experiment was within 2 g. The mice were supplied food and water ad libitum.
# (§3) Antitumor Agents. The compound easily dissolved in the diluent which consisted of 3% [V/V (100%-Pure)] Ethanol, 1% (V/V) polyoxyethylanesorbitan monopalmitate (P.O.E.40) and 96% sterile distilled water. The primary route of administration was intravenous (IV).
# (§4) […] Chemotherapy. The methods of protocol design, tumor transplantation, drug treatment, endpoint determination, definition of terms, toxicity evaluation, data analysis, quantification of tumor cell kill, and the biologic significance of the drug treatment results with transplantable tumors have been presented. The following is a brief summary of those methods as they apply to the work described.
# (§5) The animals necessary to begin an experiment were pooled, implanted bilaterally SC on day 0 with 30 to 60 mg tumor fragments using a 12 gauge trocar, and again pooled before randomization to the various treatment and control group. Chemotherapy was either started within 3 days after tumor implantation while the number of cells per mouse was relatively small (10^7 to 10^8 cells), or allowed to grow to palpation (about 3×10^8 cells) in a more advanced stage trial.
# (§6) Tumors were measured with a caliper either once or twice weekly (as needed) until either tumors exceeded 1500 mg or cure was. assured. Tumor weights were estimated from two-dimensional measurements:
# (§7) Tumor Weight (mg)=(a×b^2)/2, where a and b are the tumor length and width (mm) respectively.
# (§8) Tumor growth delay. (T-C value), where T is the median time (in days) required for the treatment group tumors to reach a predetermined size, and C is the median time (in days) for the control group tumors to reach the same size. Tumor-free survivors were excluded from these calculations (cures were tabulated separately).
# (§9) Calculation of tumor cell kill. For SC growing tumors, the log10 cell kill was calculated from the following formula: [formula]
# (§10) Where T-C is the tumor growth delay (in days) as described above and Td is the tumor volume doubling time (in days), the latter estimated from the best fit straight line from a log-linear growth plot of the control-group tumors in exponential growth (500 to 1500 mg range). The conversion of the T-C values of log10 cell kill is possible because the Td for tumors regrowing post-treatment approximated the Td values of the tumors in untreated control mice.
# (§11) Determination of activity by tumor growth inhibition (T/C value). Measurements were carried out simultaneously in both the treatment and control groups. When the control group tumors reached approximately 750-1500 mg in size (median of group), the median tumor weight of each group was determined (including zeros).
# [3] = test system: colon adenocarcinoma #38 [C38]; assay: in vivo chemotherapy of SC transplanted tumor; set-up: species or system mice; settings: for Cures / MTD Total Dose: C38; for Cures: IV at MTD, cured/total mice; for MTD Total Dose: IV, days: Glaucarubinone 3,5-10, Holacanthone 3-12, Glaucarubolone 3-6, Chaparrinone 3-9; for in vivo activity against C38, in words: mouse
# Source text: as §1, §2, §3, §4, §5, §6, §7, §8, §9, §10, §11
# [4] = test system: mammary adenocarcinoma #16/C [Mamm 16/C]; assay: in vivo chemotherapy of SC transplanted tumor; set-up: species or system mice; settings: for MTD Total Dose: MAM 16/C, IV days: Glaucarubinone 1-11, Holacanthone 1-9/, Chaparrinone 1-6; for in vivo activity against Mam 16/C, in words: mouse
# Source text: as §1, §2, §3, §4, §5, §6, §7, §8, §9, §10, §11
# [5] = test system: leukemia and solid tumor cells; assay: in vitro differential cytotoxicity, solid tumor versus leukemia; type: cell-based; settings: for solid tumor selectivity in vitro: solid tumor versus leukemia zones
# [6] = test system: H8; assay: soft agar disk diffusion zone of inhibition assay; type: cell-based, human
# Source text: (§12) The following human tumors were used: Human adenosquamous lung tumor H-125 (7) and colon tumors H8, HCT-116, and CX-1 were used for in vitro testing only. Each human cell line was maintained in culture until plating was done. HCT-116, H8, and CX-1 were maintained in McCoy's media and heat inactivated fetal bovine serum (11% FBS). It was passaged (1:5 dilution) twice week following enzymatic dissociation using a trypsin/PBS-EDTA mixture. H-125 was maintained in CMRL/Fischer media (1:1) with 11% FBS. It was mechanically dissociated and passaged (3:10 dilution) weekly. For the plating assay, all cells were mechanically dispersed and diluted in the CMRL/Fischer. media mixture.
# [7] = test system: CX-1; assay: soft agar disk diffusion zone of inhibition assay; type: cell-based, human
# Source text: as §12
# [8] = test system: L1210; assay: soft agar disk diffusion zone of inhibition assay; type: cell-based, mice
# [9] = test system: M17/Adr; settings: multidrug resistant, p-glycoprotein expressing mammary tumor versus leukemia
# [10] = test system: Tomato plants; assay: growth of plants in peat after treatment; type: in vivo
# Protocol: Tomato plants about 3.5 cm high at the time of treatment were grown in peat in a flat of 1.5 inch diameter compartments and were treated with either aqueous simalikalactone (solution QD-1) or aqueous glaucarubolone (solution QD-2) containing 0.1% Triton X-100. The final volume/plant was 10 μ1 for the aqueous solution and 200 µl of the aqueous solution containing Triton X-100. […] With the aqueous treatment, plants also were inhibited but not as markedly as with detergent.
# [11] = test system: porcine pseudorabies virus; settings: rabbit kidney cells, visually monitored
# [12] = test system: human rhinovirus-14; assay: cytopathic effect of rhinovirus in HeLa cells; type: cell-based; settings: HeLa cells (Wisconsin strain), visually observed
# Protocol: C. HeLa cells (Wisconsin strain, Berlin, Germany) were contacted with human rhinovirus-14. Infected cells (Wisconsin strain) were visually observed. […] HeLa cells were not killed by any compounds used. Cells of other HeLa lines (eg. ATCC CCL2) were killed. Glaucarubolone, simalikalactone D and chaparrinone were tested on cell killing and virus production by primary blood monocytes. All three drugs were tested at five concentrations (0, 10^−9, 10^−8, 10^−7, and 10^−6 M). Drugs were given at different times pre-infection, given at the time of infection, or were administered at different times post-infection.
# [13] = target: NADH oxidase; assay: NADH oxidase activity of soybean hypocotyl plasma membrane vesicles; type: biochemical; settings: Isolated PM vesicles; read-out: ED50, Inhibition of NADH oxidase
# [14] = test system: soybean hypocotyls; assay: growth of sections cut from dark-grown soybean hypocotyls; settings: Excised segments of etiolated soybean hypocotyls (18 h)
# [15] = test system: pancreatic ductal adenocarcinoma #03 [PO3]; assay: in vivo chemotherapy of SC transplanted tumor; set-up: species or system mice; settings: for % T/C / Cures / Log Cell Kill / MTD Total Dose: PO3
# Source text: as §1, §2, §3, §4, §5, §6, §7, §8, §9, §10, §11
# [16] = test system: P388; assay: soft agar disk diffusion zone of inhibition assay; type: cell-based, mice; settings: 0.25 ug/disk
# [17] = test system: C16; assay: in vivo chemotherapy of SC transplanted tumor; set-up: species or system mice
# Source text: as §1, §2, §3, §4, §5, §6, §7, §8, §9, §10, §11
# [18] = test system: MX-1; assay: soft agar disk diffusion zone of inhibition assay; type: cell-based, human; settings: dose line (5, 1 or 0.3 ug/disk) not clear
# [19] = 5 ug/disk (figure before the colon)
# [20] = IV days: Glaucarubinone 4-15, Peninsularinone 3-13
# [21] = IV days 4,6,8,10,12,14 (Twice Daily)
# [22] = C16, IV days 3,5,7,9,11,13 (Twice Daily)
compound,measurement,setting,value
CC1=CC(=O)[C@@H](O)[C@]2(C)[C@H]3[C@@]4(O)OC[C@@]35[C@@H](C[C@@H]12)OC(=O)C[C@H]5[C@@H](C)[C@H]4O [Chaparrinone],zone of inhibition C38,[1]; 5 ug/disk,920 ZONE UNITS
same,% T/C,"[2]; MAM 17/AdR, IV days 1-10",42%
same,Cures,"[2]; MAM 17/AdR, IV days 1-10",0/5
same,MTD Total Dose,"[2]; MAM 17/AdR, IV days 1-10",260 mg/kg
same,"in vivo activity against Mam 17/Adr, in words","[2]; mouse, in vivo",activity
same,Cures,[3],3/5
same,MTD Total Dose,[3],232 mg/kg
same,"in vivo activity against C38, in words",[3],therapeutic activity
same,MTD Total Dose,[4],90 mg/kg
same,"in vivo activity against Mam 16/C, in words",[4],activity
same,solid tumor selectivity in vitro,[5],demonstrated solid tumor selectivity
same,zone of inhibition H8,[6]; 5 ug/disk,270 ZONE UNITS
same,zone of inhibition CX-1,[7]; 5 ug/disk,480 ZONE UNITS
same,zone of inhibition L1210,[8]; [19],5:200 ZONE UNITS
same,differential / selectivity for M17/Adr (Mam 17/Adr),[9],demonstrated selectivity
CC(=O)O[C@H]1C(=O)O[C@@H]2C[C@H]3C(C)=CC(=O)[C@@H](O)[C@]3(C)[C@H]3[C@@]4(O)OC[C@]32[C@@H]1[C@@H](C)[C@H]4O [Holacanthone],zone of inhibition C38,[1]; 12 ug/disk,950 ZONE UNITS
same,Cures,[3],0.5
same,MTD Total Dose,[3],188 mg/kg
same,MTD Total Dose,[4],80 mg/kg
same,solid tumor selectivity in vitro,[5],demonstrated solid tumor selectivity
same,zone of inhibition CX-1,[7]; 12 ug/disk,900 ZONE UNITS
same,zone of inhibition L1210,[8]; 12 ug/disk,12:310 ZONE UNITS
same,differential / selectivity for M17/Adr (Mam 17/Adr),[9],demonstrated selectivity
CC[C@@H](C)C(=O)O[C@H]1C(=O)O[C@@H]2C[C@H]3C(C)=CC(=O)[C@@H](O)[C@]3(C)[C@H]3[C@@H](O)[C@H](O)[C@]4(C)OC[C@]32[C@@H]14 [simalikalactone D],"effect on tomato plants, in words","[10]; 1:1000 and 1:10,000 dilutions in detergent solution, 30 days after treatment",still inhibited
same,"effect on tomato plants, in words",[10]; 100 Mm diluted 1:100 in 0.1% Triton X-100,did not grow and eventually died
same,cytopathic effect of porcine pseudorabies virus,[11],Inhibitory effect was also observed
same,cytopathic effect of human rhinovirus-14,[12],Cytopathic effect was delayed
same,EC50,[13],400 nM
same,EC50,"[14]; read-out: ED50, Inhibition of 2,4-D (1 μM)-induced growth",3500 nM
same,EC50,"[14]; read-out: ED50, Inhibition of control growth",2500 nM
(−)-Peninsularinone,% T/C,[15]; [20],3%
same,Cures,[15]; [20],0/5
same,Log Cell Kill,[15]; [20],2.0
same,MTD Total Dose,[15]; [20],4.3 mg/kg
same,cytopathic effect of porcine pseudorabies virus,[11],Inhibitory effect was also observed
same,cytopathic effect of human rhinovirus-14,[12],Cytopathic effect was delayed
same,"zone of inhibition (P388), printed in C38 column",[16],700 (P388) ZONE UNITS
same,zone of inhibition H8,[6]; 0.25 ug/disk,510 ZONE UNITS
same,zone of inhibition L1210,[8]; 0.25 ug/disk,0.25:310 ZONE UNITS
Ailanthinone,zone of inhibition C38,[1]; 2 ug/disk,340 ZONE UNITS
same,solid tumor selectivity in vitro,[5],no solid tumor selectivity
same,zone of inhibition CX-1,[7]; 2 ug/disk,300 ZONE UNITS
same,zone of inhibition L1210,[8]; 2 ug/disk,2:290 ZONE UNITS
Glaucarubinone,zone of inhibition C38,[1]; 0.3 ug/disk,450 ZONE UNITS
same,zone differential between C38 and L1210,[1]; 1 ug/disk,400 units
same,zone of inhibition C38,[1]; 1 ug/disk,700 ZONE UNITS
same,zone of inhibition C38,[1]; 5 ug/disk,950 ZONE UNITS
same,% T/C,[15]; [21],0%
same,Cures,[15]; [21],0.6
same,Log Cell Kill,[15]; [21],3.1
same,MTD Total Dose,[15]; [21],16 mg/kg
same,% T/C,[15]; [20],15%
same,Cures,[15]; [20],1/6
same,Log Cell Kill,[15]; [20],1.5
same,MTD Total Dose,[15]; [20],16 mg/kg
same,"in vivo activity against PO3, in words","[15]; mouse, in vivo",curative activity
same,Cures,[3],1/5
same,MTD Total Dose,[3],9.1 mg/kg
same,"in vivo activity against C38, in words",[3],curative activity
same,% T/C,[17]; [22],42%
same,Cures,[17]; [22],0/5
same,MTD Total Dose,[17]; [22],18 mg/kg
same,"in vivo activity against Col26, in words","[17]; mouse, in vivo",Antitumor activity
same,MTD Total Dose,[4],24 mg/kg
same,"in vivo activity against Mam 16/C, in words",[4],Antitumor activity
same,zone differential for PO3,"[5]; PO3 versus L1210, compared with 400 units for C38","similar, or greater differential"
same,solid tumor selectivity in vitro,[5],solid tumor selective
same,zone of inhibition CX-1,"[7]; dose line (5, 1 or 0.3 ug/disk) not clear",400 ZONE UNITS
same,"zone of inhibition (MX-1), printed in H8 column",[18],600 (MX-1) ZONE UNITS
same,zone of inhibition L1210,[8]; 0.3 ug/disk,160 ZONE UNITS
same,zone of inhibition L1210,[8]; 1 ug/disk,300 ZONE UNITS
same,zone of inhibition L1210,[8]; [19],600 ZONE UNITS
same,differential / selectivity for M17/Adr (Mam 17/Adr),[9],no differential
quassimarine,cytopathic effect of porcine pseudorabies virus,[11],Inhibitory effect was also observed
same,cytopathic effect of human rhinovirus-14,[12],Cytopathic effect was delayed
